Laboratory results as given in ChEMBL document CHEMBL1132787, “Novel heterocycles as selective alpha1-adrenergic receptor antagonists” (Bioorg Med Chem Lett, 2000).

Tests used:
[1] = target: T1, Alpha-1D adrenergic receptor (Homo sapiens, UniProt P25100); test: Compound was evaluated for its binding affinity to COS cell membrane expressing the human Alpha-1D adrenergic receptor; format: cell membranes
T1 sequence (P25100 whole entry): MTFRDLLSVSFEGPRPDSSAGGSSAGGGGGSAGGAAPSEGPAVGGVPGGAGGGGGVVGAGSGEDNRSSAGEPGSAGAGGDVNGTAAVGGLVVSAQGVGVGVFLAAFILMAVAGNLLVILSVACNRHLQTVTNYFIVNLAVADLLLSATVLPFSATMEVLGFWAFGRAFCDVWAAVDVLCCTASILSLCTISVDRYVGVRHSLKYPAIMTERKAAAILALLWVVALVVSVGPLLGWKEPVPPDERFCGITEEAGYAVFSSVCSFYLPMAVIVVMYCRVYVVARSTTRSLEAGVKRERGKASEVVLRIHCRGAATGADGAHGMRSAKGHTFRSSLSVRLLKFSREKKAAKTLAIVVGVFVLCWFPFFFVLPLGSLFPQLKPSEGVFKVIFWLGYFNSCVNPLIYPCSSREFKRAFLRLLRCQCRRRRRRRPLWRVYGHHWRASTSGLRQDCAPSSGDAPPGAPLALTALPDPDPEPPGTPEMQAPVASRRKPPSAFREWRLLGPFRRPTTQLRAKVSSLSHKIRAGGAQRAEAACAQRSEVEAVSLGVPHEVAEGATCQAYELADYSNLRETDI

[2] = target: T2, Alpha-1A adrenergic receptor (Homo sapiens, UniProt P35348); test: Compound was evaluated for its binding affinity to COS cell membrane expressing the human Alpha-1A adrenergic receptor; format: cell membranes
T2 sequence (P35348 whole entry): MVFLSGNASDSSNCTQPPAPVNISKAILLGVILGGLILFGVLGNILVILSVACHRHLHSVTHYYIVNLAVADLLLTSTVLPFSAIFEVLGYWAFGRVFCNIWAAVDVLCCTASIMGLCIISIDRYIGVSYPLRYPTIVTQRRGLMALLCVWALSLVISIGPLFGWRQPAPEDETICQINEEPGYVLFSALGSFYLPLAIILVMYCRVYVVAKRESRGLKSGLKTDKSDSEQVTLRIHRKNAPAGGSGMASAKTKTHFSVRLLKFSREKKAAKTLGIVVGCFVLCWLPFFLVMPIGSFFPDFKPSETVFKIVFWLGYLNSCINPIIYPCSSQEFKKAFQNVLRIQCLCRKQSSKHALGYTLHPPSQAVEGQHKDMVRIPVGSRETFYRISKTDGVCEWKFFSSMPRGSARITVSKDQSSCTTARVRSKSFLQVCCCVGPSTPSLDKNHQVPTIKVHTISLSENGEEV

[3] = target: T3, Alpha-1B adrenergic receptor (Homo sapiens, UniProt P35368); test: Compound was evaluated for its binding affinity towards COS cell membrane expressing the human Alpha-1B adrenergic receptor; format: cell membranes
T3 sequence (P35368 whole entry): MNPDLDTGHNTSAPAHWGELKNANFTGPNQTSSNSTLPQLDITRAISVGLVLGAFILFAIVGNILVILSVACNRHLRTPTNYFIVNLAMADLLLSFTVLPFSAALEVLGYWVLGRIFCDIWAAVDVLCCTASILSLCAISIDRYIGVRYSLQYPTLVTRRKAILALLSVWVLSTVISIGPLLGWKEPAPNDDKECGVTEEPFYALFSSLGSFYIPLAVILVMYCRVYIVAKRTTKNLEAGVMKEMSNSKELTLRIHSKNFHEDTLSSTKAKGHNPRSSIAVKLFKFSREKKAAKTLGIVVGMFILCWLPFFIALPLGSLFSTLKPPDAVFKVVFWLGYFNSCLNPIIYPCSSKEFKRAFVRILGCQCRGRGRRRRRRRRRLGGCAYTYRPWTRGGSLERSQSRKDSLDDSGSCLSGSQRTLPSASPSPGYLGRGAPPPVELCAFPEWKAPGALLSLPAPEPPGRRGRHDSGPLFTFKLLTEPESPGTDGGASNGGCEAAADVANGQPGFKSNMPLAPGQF

[4] = target: Adrenergic receptors; alpha-1 A & B (Homo sapiens) (UniProt P35348+P35368); test: Ratio of binding affinity of compound to human adrenergic receptor alpha-1b to that of human adrenergic receptor alpha-1a; format: protein assay
[5] = target: Alpha adrenergic receptor (1a and 1d) (Homo sapiens) (UniProt P35348+P25100); test: Ratio of binding affinity of compound to human adrenergic receptor alpha-1d to that of human adrenergic receptor alpha-1a; format: protein assay

With `CC(C)Oc1ccccc1N1CCN(Cc2cc(CN3CCCCC3=O)nc(N)n2)CC1` the Ki [1] was > 10 µM, the Ki [2] was 0.079 µM and the Ki [3] was > 10 µM. For the same compound, the Ratio [4] was > 127 and the Ratio [5] was > 127.
`CC(C)Oc1ccccc1N1CCN(Cc2cc(CN3CCCCC3=O)on2)CC1` showed a Ki [1] of 0.272 µM, a Ki [2] of 0.0038 µM and a Ki [3] of 4.46 µM. The Ratio [4] was 1170 and the Ratio [5] was 72.
With `CC(C)Oc1ccccc1N1CCN(Cc2cc(CN3CCCCC3=O)nn2C)CC1` the Ki [1] was 0.044 µM, the Ki [2] was 0.009 µM and the Ki [3] was 2.77 µM. The Ratio [4] was 308 and the Ratio [5] was 5.
Work on `CC(C)Oc1ccccc1N1CCN(Cc2cc(CN3CCCCC3=O)n(C)n2)CC1` yielded a Ki [1] of 0.052 µM, a Ki [2] of 0.0037 µM and a Ki [3] of 3.08 µM. The Ratio [4] was 832 and the Ratio [5] was 14.
`CC(C)Oc1ccccc1N1CCN(CC2=NOC(CN3CCCCC3=O)C2)CC1` (stereo not given) was tested, and the Ki [1] was 1.52 µM, the Ki [2] was 0.089 µM and the Ki [3] was > 10 µM. The Ratio [4] was > 112 and the Ratio [5] was 17.
Work on `CC(C)Oc1ccccc1N1CCN(Cc2cc(CN3CCCCC3=O)n[nH]2)CC1` yielded a Ki [1] of 0.177 µM, a Ki [2] of 0.0021 µM and a Ki [3] of 3.92 µM. The Ratio [4] was 1860 and the Ratio [5] was 84.
